According to US9512440B2, “Modulation of receptor-like kinases for promotion of plant growth” (IOWA STATE UNIVERSITY RESEARCH FOUNDATION, INC., priority 2009, dated 2016):

Key:
[1] = system: wild-type 24-day-old adult plants; assay: Affymetrix microarray gene expression, wild-type adult plants with BL; format: in vivo, Arabidopsis thaliana
Experimental: (§1) Microarray experiments were performed with 24-day-old adult plants. The whole plants were sprayed with either water or […] and incubate for 2.5 hours. The plants were pooled into three groups as triplicates (8 plants per group). Total RNA was prepared with RNeasy Plant Mini Kit (QIAGEN) and used to make probes for microarray experiments with Affymetrix Arabidopsis Genomic arrays. The probe labeling, hybridization, and scanning were performed according to manufacture's instructions. Microarray data was normalized by the MAS 5.0 method implemented in the R package affy and the linear model was applied to two sample comparison (samples with and without BL treatment or WT compared to mutant) using the limma package (39, 40). Genes with an adjusted p-value <=0.01 were considered to be differentially expressed. The BR-induced genes, HERK1/THE regulated genes were used for clustering analysis with the GENESPRING program (Silicon Genetics) using Pearson Correlation.

HERK1, THE1 and FER = assay: quantitative RT-PCR of HERK1, THE1 and FER expression after hormone treatment; format: in vivo, Arabidopsis thaliana
Text: (1A) The expression of HERK1, THE1 and FER is induced by BL treatment in 10-day-old seedlings and 4-week-old adult plants. Triplicate biological samples were used to prepare RNA for quantitative RT PCR. The relative expression levels compared to UBQ5 gene were used to determine the BL-induction levels of each gene. The averages and standard deviations from three biological repeats are shown. […] Ten-day-old seedlings were used to prepare RNA for qRT-PCR as described in (1A). (1C-E) HERK1 cellular localization: A HERK1-GFP (1C) or BES1-D-GFP (1D) construct was introduced into protoplasts or transgenic plants (1E). HERK1 is mostly localized at the plasma membrane (1C and 1E), while BES1-D is primarily in the nucleus (1D). […] Recombinant proteins fused with MBP representing the wild-type HERK1 kinase domain (WT), and a mutant version with disrupted kinase activity (mutant), were used in kinase assay. […] The bars in 1G/1H and 1I represent 2.5 and 10 mm, respectively.
(8A) Regulation of HERK1, THE1 and FER as well as other CrRLK family members by BL. The data are derived from microarray experiments with light-growing seedlings treated with 10 nM BL for 3 hr, which is published in a public website (http://bbc.botany.utoronto.ca/efp/cgi-bin/efpWeb.cgi). […] The averages and standard deviations for 2 biological replicates are shown. (8C) the herk1 the1 double mutant has a normal GA response in a hypocotyl elongation assay. […]
For reverse transcription-polymerase chain reaction (RT-PCR), 2 μg total RNA was reverse-transcribed to cDNA by SuperScript II Reverse Transcriptase (Invitrogen). For real-time quantitative RT-PCR, the primers were designed so that the products are between 200-300 bps. The SYBR Green PCR Master mix (Applied Biosystems) was used and the PCR reactions were run on the Mx4000® multiplex quantitative PCR system (Stratagene). Two or three biological replicates were each analyzed with 2-3 RT-PCR reactions. For semi-quantitative RT-PCR, the same amount of cDNA was used for each PCR reaction. […]

CrRLK family members = details: 10 nM BL for 3 hr; cited from earlier work
[2] = system: herk1 the1 double mutant 24-day-old adult plants; assay: Affymetrix microarray gene expression, herk1 the1 double mutant adult plants with BL; format: in vivo, Arabidopsis thaliana
Experimental: as §1

CrRLK1L family RLKs = assay: microarray of CrRLK1L family expression, 2-week-old seedlings with or without BL; format: in vivo, Arabidopsis thaliana; details: wild-type (En-2), BL 1 uM, 3 hr
Experimental: (9A) The expression of CrRLK family RLKs by BL in WT and bes1-D mutant. Microarrays were performed with 2-week-old seedlings with or without BL treatment (1 uM, 3 hr). At5g38990 and At5g39000 have the same probe set in Affymetrix ATH1 Genome arrays, so only the former is shown. (9B) BR responses of the indicated mutants at the seedling stage, performed as described. (9C) Plant phenotypes of 24-day-old adult plants. The bar represents 10 mm. (9D) Petiole lengths of the sixth leaf in WT and mutants. Averages and standard deviations from 10 plants are shown. (E) A model for HERK signaling and its crosstalk with BR pathway.
BRs function to regulate cell elongation and many other processes^10-13. BRs signal through a membrane-localized receptor kinase BRI1 and other signaling components^10, 14-16 to control BES1 and BZR1 family transcription factors, which mediate the expression of many genes for BR responses^17-20. […] To further confirm that these RLK genes are modulated by BRs and/or BES1, we performed a microarray experiment with bes-D mutant^19, a constitutive BR response mutant due to highly accumulated BES1 protein, with En-2 as wild-type control (L.L. & Y.Y. in preparation). The expression of all CrRLK1L members is examined (FIG. 5A).

[3] = adult plants, microarray, adjusted p-value <=0.01

In the case of `CC(C)[C@H](C)[C@@H](O)[C@H](O)[C@@H](C)[C@H]1CC[C@H]2[C@@H]3COC(=O)[C@H]4C[C@H](O)[C@H](O)C[C@]4(C)[C@H]3CC[C@]12C` [BL, brassinolide], the “gene expression level At3g45960 (EXPL3)” value ([1]; WT + BL, WT-BL 24) was 92, the “gene expression level AT1G10550 (XTH33)” value ([1]; WT + BL, WT-BL 47) was 223 and the “gene expression level At1g65310 (XTH17)” value ([1]; WT + BL, WT-BL 137) was 214. The “gene expression level At1g20190 (EXP11)” value ([1]; WT + BL, WT-BL 141) was 395, the “gene expression level At4g30290 (XTH19)” value ([1]; WT + BL, WT-BL 153) was 297 and the “gene expression level At4g38400 (EXPL2)” value ([1]; WT + BL, WT-BL 188) was 433. The “gene expression level At2g20750 (EXPB1)” value ([1]; WT + BL, WT-BL 295) was 198, the “gene expression level At2g37640 (EXP3)” value ([1]; WT + BL, WT-BL 384) was 641 and the “gene expression level At3g07010 (PLL20)” value ([1]; WT + BL, WT-BL 427) was 939. For the same compound, the “gene expression level AT1G11545 (XTH8)” value ([1]; WT + BL, WT-BL 453) was 1178, the “gene expression level At3g23730 (XTH16)” value ([1]; WT + BL, WT-BL 559) was 819 and the “gene expression level At3g45970 (EXPL1)” value ([1]; WT + BL, WT-BL 581) was 1339. For the same compound, the “gene expression level At2g40610 (EXP8)” value ([1]; WT + BL, WT-BL 1006) was 2407, the “gene expression level AT5G57560 (XTH22)” value ([1]; WT + BL, WT-BL 2277) was 7344 and the “gene expression level At3g29030 (EXP5)” value ([1]; WT + BL, WT-BL 2323) was 2112. The “gene expression level At1g04680 (PLL26)” value ([1]; WT + BL, WT-BL 2466) was 3402, the “gene expression level At4g37800 (XTH7)” value ([1]; WT + BL, WT-BL 2899) was 3419 and the “gene expression level At2g28950 (EXP6)” value ([1]; WT + BL, WT-BL 3287) was 2524. The “gene expression level At1g69530 (EXP1)” value ([1]; WT + BL, WT-BL 6798) was 8465, the “gene expression level At2g06850 (XTH4)” value ([1]; WT + BL, WT-BL 7247) was 13455 and the “number of genes whose expression BL induces” value [1, 3] was 650. The “number of genes whose expression BL represses” value [1, 3] was 520, the “up-regulation of HERK1, THE1 and FER expression” value (HERK1, THE1 and FER; seedlings and/or adult plants, relative to UBQ5, p<0.01) was 20-80% and the “induction of HERK1, THE1 and FER among CrRLK family members” value (CrRLK family members) was “most highly induced”. For the same compound, the “regulation of At2g39360, At5g24010, At1g30570, At5g38990/At5g39000 and At5g39020” value (CrRLK family members) was “slightly induced”, the “gene expression level At3g45960 (EXPL3)” value ([2]; herk1 the1-BL 18) was 44 and the “gene expression level At1g20190 (EXP11)” value ([2]; herk1 the1-BL 35) was 225. The “gene expression level AT1G10550 (XTH33)” value ([2]; herk1 the1-BL 48) was 191, the “gene expression level At1g65310 (XTH17)” value ([2]; herk1 the1-BL 95) was 302 and the “gene expression level At4g38400 (EXPL2)” value ([2]; herk1 the1-BL 151) was 381. For the same compound, the “gene expression level At2g20750 (EXPB1)” value ([2]; herk1 the1-BL 161) was 157, the “gene expression level At4g30290 (XTH19)” value ([2]; herk1 the1-BL 162) was 259 and the “gene expression level At3g07010 (PLL20)” value ([2]; herk1 the1-BL 325) was 829. The “gene expression level At2g37640 (EXP3)” value ([2]; herk1 the1-BL 340) was 594, the “gene expression level AT1G11545 (XTH8)” value ([2]; herk1 the1-BL 357) was 1249 and the “gene expression level At2g40610 (EXP8)” value ([2]; herk1 the1-BL 437) was 1586. For the same compound, the “gene expression level At3g45970 (EXPL1)” value ([2]; herk1 the1-BL 529) was 970, the “gene expression level At3g23730 (XTH16)” value ([2]; herk1 the1-BL 636) was 1069 and the “gene expression level At3g29030 (EXP5)” value ([2]; herk1 the1-BL 1523) was 1848. For the same compound, the “gene expression level At4g37800 (XTH7)” value ([2]; herk1 the1-BL 1831) was 2864, the “gene expression level At1g04680 (PLL26)” value ([2]; herk1 the1-BL 1982) was 2932 and the “gene expression level At2g28950 (EXP6)” value ([2]; herk1 the1-BL 2074) was 1919. For the same compound, the “gene expression level AT5G57560 (XTH22)” value ([2]; herk1 the1-BL 2728) was 7941, the “gene expression level At1g69530 (EXP1)” value ([2]; herk1 the1-BL 3595) was 6462 and the “gene expression level At2g06850 (XTH4)” value ([2]; herk1 the1-BL 5096) was 11194. The “regulation of FER, THE1, HERK1, At1g30570 (HERK2), At2g39360 and At5g24010” value (CrRLK1L family RLKs) was “slightly upregulated”.

For `C=C1C[C@]23C[C@@]1(O)CC[C@H]2[C@@]12C=C[C@H](O)[C@@](C)(C(=O)O1)[C@H]2[C@@H]3C(=O)O` [GA3], the “regulation of expression of HERK1, THE1, and FER” value (HERK1, THE1 and FER; 10-day-old seedlings, qRT-PCR) was “up-regulates”.

For `O=C(O)Cc1c[nH]c2ccccc12` [IAA], the “regulation of expression of HERK1” value (HERK1, THE1 and FER; 10-day-old seedlings, qRT-PCR) was “appears to induce”.
